Experimental data taken from patent publication US11285128B2, “Homogenous antibody drug conjugates via enzymatic methods” (CSPC Megalith Biopharmaceutical Co., Ltd., priority 2014, dated 2022).

What was measured:
SK-BR-3 cells = assay: In vitro cell viability assay (CellTiter Blue) in SK-BR-3 cells; format: cell-based; settings: Trastuzumab-MMAE conjugates
Procedure: SK-BR-3 cells were seeded in 96 well black clear-bottom plates at 10K cells/well and cultured for 24 hours. Cells were treated for 96 hours with 2 fold serially diluted antibody-drug conjugates in triplicates. Cells viability was determined by […]™ Blue Cell Viability Assay (Promega, Madison, Wis.). Relative cell viability was determined as a percentage of untreated control. IC50 was calculated using a four parameter logistic model from XLfit.

BT474 cells = assay: BT474 cell-based assay; settings: Trastuzumab-MMAE conjugates, Table 4
[1] = In vivo stability in blood of NCI N87 xenograft mice (sandwich ELISA, ratio ADC/mAb); settings: blood samples up to 21 days
Procedure: After ADC administration, blood samples of 20 μl were taken every 1-2 days up to 21 days by poking mouse tails and mixed with 120 μl of storage buffer (PBS with 10 mM EDTA and 0.1 M NH4Cl). Then total trastuzumab and ADC were analyzed by sandwich ELISA. Black NUNC® Maxisorp 96 plates were coated with Her2 protein at 100 ng/well. Samples were further diluted with PBS as needed to suit the linear detection range of 10 pg to 2 ng (for either Trastuzumab or ADC). After applying samples (fresh ADC dilutions were used as both total mAb and ADC standards) and washing, rabbit polyclonal anti-trastuzumab (for total mAb) or anti-MMAE (for total ADC) were applied as secondary antibodies while Goat anti-Rabbit IgG-HRP (Life-technologies) was used as the detection antibody. AMPLEX® Red (Cayman Chemical)/4-Iodophenol (Sigma)/H2O2 mixture was used as fluorescence substrate. Plates were read on SpectraMax GEMINI′ with 555 nm Ex and 585 nm Em.

IgG1 = IgG1 (Homo sapiens, UniProt P01857, D239E/L241M); assay: mTgase-catalysed conjugation of IgG1 with MDC (HPLC); format: biochemical; settings: high enzyme concentration
IgG1, sequence (P01857 with tags, fused parts or gaps isoform P01857-1 D239E/L241M, other chains not shown): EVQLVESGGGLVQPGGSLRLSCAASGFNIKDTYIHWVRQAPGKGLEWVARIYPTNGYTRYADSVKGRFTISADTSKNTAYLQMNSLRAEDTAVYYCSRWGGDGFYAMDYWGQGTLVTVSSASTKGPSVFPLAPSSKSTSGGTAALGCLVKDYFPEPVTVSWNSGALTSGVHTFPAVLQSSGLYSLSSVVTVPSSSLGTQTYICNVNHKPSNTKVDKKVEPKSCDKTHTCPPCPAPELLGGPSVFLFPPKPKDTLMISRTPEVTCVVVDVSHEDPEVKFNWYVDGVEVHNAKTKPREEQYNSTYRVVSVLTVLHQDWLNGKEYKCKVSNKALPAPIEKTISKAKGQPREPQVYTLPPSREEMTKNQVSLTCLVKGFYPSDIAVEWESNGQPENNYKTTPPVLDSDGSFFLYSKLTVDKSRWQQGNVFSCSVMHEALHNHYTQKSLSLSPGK
Procedure: MDC was chosen for this experiment because it has a primary amine and its fluorescence can be easily monitored. […] To purified IgG1 (1-10 mg/ml) in Tris-buffer (pH 6.5-8.5), add MDC (Sigma-Aldrich) in DMSO to final concentrations of 1-5 mM (final DMSO 2-10%). Add purified wildtype TG_SL or its mutant to a final concentration of 0.05-1.0 mg/ml. Incubate the reaction mixtures at 37° C. Reaction was followed by HPLC using phenyl hydrophobic interaction column (PHIC, Tosoh Bioscience LLC). At the beginning of the reaction, the product was dominated by DAR1, where only one heavy chain of IgG1 was coupled with MDC. As the reaction progressed, DAR 2, where both heavy chains of IgG1 are coupled with MDC, became the major product. Toward the end of reaction (8 hours at 0.2 mg/ml of mTgase at pH 7), conjugation yield reached 80% for DAR2 with 20% of DAR 1 left, or 90% for heavy chain (HC) when the sample was reduced by 10 mM TCEP and analyzed on C4-1000A column (Vydac) (see FIG. 6). The selective conjugation of MDC to HC was visualized on SDS PAGE (FIG. 7). Other mTgases, such as TG_SM from S. mobaraensis (purified from Ajinomoto's Activa TI), was also tested.

Molecule | IC50 (SK-BR-3 cells) [nM] | IC50 (BT474 cells) [nM] | stability in blood (ratio of ADC/mAb vs time) [1] | activity comparing to TG_SL (IgG1)
PEG4 | 0.061 | 0.273 |  | 
PEG6 | 0.05 | 0.234 |  | 
PEG8 | 0.042 | 0.23 |  | 
PEG12 | 0.038 | 0.267 | completely stable in blood | 
TG_SM: mTgase from S. mobaraensis, purified from Ajinomoto's Activa TI (SEQ ID NO:18) (protein) DSDDRVTPPAEPLDRMPDPYRPSYGRAETVVNNYIRKWQQVYSHRDGRKQQMTEEQREWLSYGCVGVTWVNSGQYPTNRLAFASFDEDRFKNELKNGRPRSGETRAEFEGRVAKESFDEEKGFQRAREVASVMNRALENAHDESAYLDNLKKELANGNDALRNEDARSPFYSALRNTPSFKERNGGNHDPSRMKAVIYSKHFWSGQDRSSSADKRKYGDPDAFRPAPGTGLVDMSRDRNIPRSPTSPGEGFVNFDYGWFGAQTEADADKTVWTHGNHYHAPNGSLGAMHVYESKFRNWSEGYSDFDRGAYVITFIPKSWNTAPDKVKQGWP |  |  |  | about 30%
